Columns and labels:
[1] = Cytotoxicity against LPS-stimulated mouse BV2 cells assessed as cell viability at 20 uM after 24 hrs by MTT assay relative to control; assay type: cell-based, BV-2; conditions: read-out: Activity
BV-2 [2] = assay: Anti-inflammatory activity in mouse BV2 cells assessed as inhibition of LPS-induced nitric oxide production after 24 hrs by griess assay; assay type: functional, cell-based; conditions: for IC50: BV-2, 24 h
BV-2 [3] = assay: Cytotoxicity against LPS-stimulated mouse BV2 cells assessed as reduction in cell viability at <10 uM after 24 hrs by MTT assay; assay type: cell-based; conditions: bv-2, 24 h
BV-2 [4] = assay: Anti-inflammatory activity in mouse BV2 cells assessed as inhibition of LPS-induced COX2 expression after 24 hrs by Western blot analysis; assay type: functional, cell-based
BV-2 [5] = assay: Anti-inflammatory activity in mouse BV2 cells assessed as inhibition of LPS-induced iNOS expression after 24 hrs by Western blot analysis; assay type: functional, cell-based
BV-2 [6] = assay: Anti-inflammatory activity in mouse BV2 cells assessed as inhibition of LPS-induced nitric oxide production pretreated followed by LPS-stimulation by griess assay; assay type: functional, cell-based

Q: With C=CCc1ccc(OC)c(-c2cc(COCC(=O)OCC)on2)c1 as the compound, how does the viability at 24 h, 20 µM [1] read?
A: 126%

Q: What about the IC50 (BV-2 [2]) of the same compound?
A: 25.9 µM

Q: With C=CCc1ccc(O)c(-c2ccn(-c3ccccc3)n2)c1 as the compound, how does the viability at 24 h, 20 µM [1] read?
A: 125%

Q: What about the IC50 (BV-2 [2]) of the same compound?
A: 73 µM

Q: What does the source list for COc1ccc(Br)cc1-c1cc(CO)on1?
A: viability at 24 h, 20 µM [1]: 94.1%; IC50 (BV-2 [2]): > 200 µM

Q: With C=CCc1ccc(OC)c(-c2cc(CO)on2)c1 as the compound, how does the viability at 24 h, 20 µM [1] read?
A: 120%

Q: What about the IC50 (BV-2 [2]) of the same compound?
A: > 200 µM

Q: What does the source list for COc1ccc(Br)cc1-c1cc(COCc2ccccc2)on1?
A: viability at 24 h, 20 µM [1]: 104%; IC50 (BV-2 [2]): > 200 µM

Q: Which results are given for C=CCc1ccc(O)c(-c2ccn(Cc3ccccc3)n2)c1?
A: viability at 24 h, 20 µM [1]: 99.5%; IC50 (BV-2 [2]): 92.5 µM

Q: What does the source list for C=CCOCc1cc(-c2cc(CC=C)ccc2OC)no1?
A: viability at 24 h, 20 µM [1]: 141%; IC50 (BV-2 [2]): 28.7 µM

Q: Which results are given for C=CCc1ccc(OC)c(-c2cc(COCc3ccccc3)on2)c1?
A: viability at 24 h, 20 µM [1]: 145%; IC50 (BV-2 [2]): > 200 µM

Q: Which viability at 24 h, 20 µM [1] does the source give for C=CCc1ccc(O)c(-c2cc(CO)on2)c1 here?
A: 126%

Q: What about the IC50 (BV-2 [2]) of the same compound?
A: > 200 µM

Q: For C=CCn1ccc(-c2cc(C=C)ccc2O)n1, which viability at 24 h, 20 µM [1] is on record?
A: 105%

Q: And the IC50 (BV-2 [2])?
A: 30.5 µM

Q: Which viability at 24 h, 20 µM [1] does the source give for COc1ccc(Br)cc1-c1cc(CN2CCN(C(=O)OC(C)(C)C)CC2)on1 here?
A: 100%

Q: And the IC50 (BV-2 [2])?
A: > 200 µM

Q: For CCCn1ccc(-c2cc(CC)ccc2O)n1, which viability at 24 h, 20 µM [1] is on record?
A: 109%

Q: What about the IC50 (BV-2 [2]) of the same compound?
A: > 200 µM

Q: Which viability at 24 h, 20 µM [1] does the source give for CNC(=N)NCCC[C@H](N)C(=O)O [TILARGININE] here?
A: 94.4%

Q: And the IC50 (BV-2 [2])?
A: 26.6 µM

Q: Which results are given for CCCc1cc(-c2cc(Br)ccc2OC)no1?
A: viability at 24 h, 20 µM [1]: 97.9%; IC50 (BV-2 [2]): > 200 µM

Q: For C=CCc1ccc(OC)c(-c2ccn(-c3ccccc3)n2)c1, which viability at 24 h, 20 µM [1] is on record?
A: 68.6%

Q: And the Activity (BV-2 [3])?
A: Non-Toxic

Q: What about the inhibition (BV-2 [4]) of the same compound?
A: Dose-dependent effect

Q: And the inhibition (BV-2 [2])?
A: Dose-dependent effect

Q: What about the IC50 (BV-2 [2]) of the same compound?
A: 8.92 µM

Q: What about the inhibition (BV-2 [5]) of the same compound?
A: Dose-dependent effect

Q: Which viability at 24 h, 20 µM [1] does the source give for C=CCc1ccc(OC)c(-c2cc(CN3CCN(C(=O)OC(C)(C)C)CC3)on2)c1 here?
A: 117%

Q: What about the IC50 (BV-2 [2]) of the same compound?
A: 76.9 µM

Q: Which viability at 24 h, 20 µM [1] does the source give for Oc1ccc(Br)cc1-c1ccn(-c2ccccc2)n1 here?
A: 109%

Q: What about the IC50 (BV-2 [2]) of the same compound?
A: > 200 µM

Q: For C=CCc1ccc(OC)c(-c2cc(CN3CCN(CC(=O)OCC)CC3)on2)c1, which viability at 24 h, 20 µM [1] is on record?
A: 93.2%

Q: And the IC50 (BV-2 [2])?
A: > 200 µM

Q: Which results are given for CCCc1ccc(O)c(-c2ccn(Cc3ccccc3)n2)c1?
A: viability at 24 h, 20 µM [1]: 126%; IC50 (BV-2 [2]): 116 µM

Q: With C=CCc1ccc(O)c(-c2cc(CCC)on2)c1 as the compound, how does the viability at 24 h, 20 µM [1] read?
A: 93.3%

Q: And the IC50 (BV-2 [2])?
A: > 200 µM

Q: With C=CCc1ccc(OC)c(-c2cc(CN3CCN(CC=C)CC3)on2)c1 as the compound, how does the viability at 24 h, 20 µM [1] read?
A: 101%

Q: What about the IC50 (BV-2 [2]) of the same compound?
A: 111 µM

Q: Which results are given for C=CCc1ccc(OC)c(-c2ccn(CC=C)n2)c1?
A: viability at 24 h, 20 µM [1]: 109%; IC50 (BV-2 [2]): > 200 µM

Q: Which viability at 24 h, 20 µM [1] does the source give for CCCc1ccc(O)c(-c2ccn(-c3ccccc3)n2)c1 here?
A: 125%

Q: What about the IC50 (BV-2 [2]) of the same compound?
A: 109 µM

Q: With CCCc1ccc(O)c(-c2cc[nH]n2)c1 as the compound, how does the viability at 24 h, 20 µM [1] read?
A: 94.7%

Q: What about the IC50 (BV-2 [2]) of the same compound?
A: 60.2 µM

Q: Which viability at 24 h, 20 µM [1] does the source give for C=CCc1ccc(OC)c(-c2cc(CN3CCN(Cc4ccccc4)CC3)on2)c1 here?
A: 98.6%

Q: What about the IC50 (BV-2 [2]) of the same compound?
A: > 200 µM

Q: Which results are given for C=CCc1ccc(OC)c(-c2ccn(Cc3ccccc3)n2)c1?
A: viability at 24 h, 20 µM [1]: 112%; IC50 (BV-2 [2]): 36 µM

Q: For CCCCC/C=C/C(=O)CCc1ccc(O)c(OC)c1 [SHOGAOL], which IC50 (BV-2 [6]) is on record?
A: 5.59 µM

Q: What does the source list for C=CCc1ccc(O)c(-c2ccn(CC=C)n2)c1?
A: viability at 24 h, 20 µM [1]: 59.9%; Activity (BV-2 [3]): Non-Toxic; inhibition (BV-2 [4]): Dose-dependent effect; inhibition (BV-2 [2]): Dose-dependent effect; IC50 (BV-2 [2]): 1.2 µM; inhibition (BV-2 [5]): Dose-dependent effect

Q: With C=CCn1ccc(-c2cc(Br)ccc2O)n1 as the compound, how does the viability at 24 h, 20 µM [1] read?
A: 113%

Q: And the IC50 (BV-2 [2])?
A: 112 µM

Q: With C=CCc1ccc(O)c(-c2ccc(O)c(CC=C)c2)c1 [HONOKIOL] as the compound, how does the viability at 24 h, 20 µM [1] read?
A: 118%

Q: What about the IC50 (BV-2 [2]) of the same compound?
A: 17 µM

Q: With Oc1ccc(Br)cc1-c1ccn(Cc2ccccc2)n1 as the compound, how does the viability at 24 h, 20 µM [1] read?
A: 107%

Q: What about the IC50 (BV-2 [2]) of the same compound?
A: > 200 µM

Q: Which results are given for C=CCn1ccc(-c2cc(Br)ccc2OC)n1?
A: viability at 24 h, 20 µM [1]: 92.2%; IC50 (BV-2 [2]): > 200 µM

Q: For COc1ccc(Br)cc1-c1ccn(Cc2ccccc2)n1, which viability at 24 h, 20 µM [1] is on record?
A: 122%

Q: What about the IC50 (BV-2 [2]) of the same compound?
A: > 200 µM

Q: For C=CCc1ccc(OC)c(-c2cc(CCC)on2)c1, which viability at 24 h, 20 µM [1] is on record?
A: 98.2%

Q: What about the IC50 (BV-2 [2]) of the same compound?
A: > 200 µM

Q: For CCOC(=O)COCc1cc(-c2cc(Br)ccc2OC)no1, which viability at 24 h, 20 µM [1] is on record?
A: 122%

Q: What about the IC50 (BV-2 [2]) of the same compound?
A: > 200 µM

Q: Which viability at 24 h, 20 µM [1] does the source give for C=CCOCc1cc(-c2cc(Br)ccc2OC)no1 here?
A: 94.6%

Q: And the IC50 (BV-2 [2])?
A: 90.4 µM

Q: What does the source list for COc1ccc(Br)cc1-c1ccn(-c2ccccc2)n1?
A: viability at 24 h, 20 µM [1]: 124%; IC50 (BV-2 [2]): > 200 µM

Q: For C=CCc1ccc(O)c(-c2ccc(OC)c(CC=C)c2)c1 [METHYLHONOKIOL], which viability at 24 h, 20 µM [1] is on record?
A: 115%

Q: And the IC50 (BV-2 [2])?
A: 52.3 µM

Q: Which viability at 24 h, 20 µM [1] does the source give for CCCc1ccc(O)c(-c2ccn(CCC)n2)c1 here?
A: 129%

Q: What about the IC50 (BV-2 [2]) of the same compound?
A: 91.3 µM
